{"source": "paper PMC4975955", "about": "(Journal of molecular biology, 2016)", "key": {"[1]": {"target": "TmRibUΔCt (Thermotoga maritima, UniProt Q9X1G6)", "sequence (Q9X1G6 1-173, stated change not applied)": "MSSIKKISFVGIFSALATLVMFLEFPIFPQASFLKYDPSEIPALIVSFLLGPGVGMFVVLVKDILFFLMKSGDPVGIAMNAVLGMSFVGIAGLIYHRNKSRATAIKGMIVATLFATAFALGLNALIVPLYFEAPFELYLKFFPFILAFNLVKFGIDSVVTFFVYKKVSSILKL", "assay": "X-ray crystallography, […] Å", "format": "binding", "conditions": "co-purified substrate; extracellular pocket of TM4-6 and Loop1-2"}, "[2]": {"target": "TmRibU (Thermotoga maritima, UniProt Q9X1G6, N123A)", "sequence (Q9X1G6 whole entry N123A)": "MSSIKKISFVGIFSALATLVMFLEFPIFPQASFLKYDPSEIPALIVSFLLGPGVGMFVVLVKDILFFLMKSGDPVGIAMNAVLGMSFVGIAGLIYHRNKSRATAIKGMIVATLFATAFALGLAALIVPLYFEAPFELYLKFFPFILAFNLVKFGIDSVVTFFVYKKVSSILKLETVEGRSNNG", "assay": "thermal melting by analytical SEC peak height", "format": "binding", "conditions": "NG detergent; difference of mutant to wild-type complex, no apo reference"}}, "data": [{"smiles": "Cc1cc2nc3c(=O)[nH]c(=O)nc-3n(C[C@H](O)[C@H](O)[C@H](O)CO)c2cc1C", "note": "[riboflavin]", "values": [{"measurement": "X-ray crystallography, 2.6 Å (also 3.2 and 3.4 Å)", "setting": "[1]", "result": "we determined the crystal structure of riboflavin-bound TmRibU"}, {"measurement": "decrease of Tm of riboflavin complex vs WT", "setting": "[2]", "result": "~ 23 °C"}]}]}
